From ChEMBL document CHEMBL4507267 (2021)

What was measured:
[1] = system: Epidermal growth factor receptor (Homo sapiens), P00533 [UNDEFINED MUTATION]; details: Compound concentration 1000.0 nM
[2] = biological target: Tyrosine-protein kinase Fgr (Homo sapiens) (UniProt P09769); details: Compound concentration 1000.0 nM
[3] = system: Tyrosine-protein kinase ABL1 (Homo sapiens), P00519 [T315I]; details: Compound concentration 1000.0 nM
[4] = biological target: Serine/threonine-protein kinase LATS1 (Homo sapiens) (UniProt O95835); details: Compound concentration 1000.0 nM
[5] = biological target: Phosphatidylinositol 4-phosphate 5-kinase type-1 alpha (Homo sapiens) (UniProt Q99755); details: Compound concentration 1000.0 nM
[6] = biological target: Calcium/calmodulin-dependent protein kinase type 1 (Homo sapiens) (UniProt Q14012); details: Compound concentration 1000.0 nM
[7] = system: Proto-oncogene tyrosine-protein kinase receptor Ret (Homo sapiens), P07949 [V804M]; details: Compound concentration 1000.0 nM
[8] = biological target: 5-hydroxytryptamine receptor 1E (Homo sapiens) (UniProt P28566); details: Compound concentration 10.0 uM
[9] = biological target: Cyclin-dependent kinase 2 (Homo sapiens) (UniProt P24941); details: Compound concentration 1000.0 nM
[10] = system: eIF-2-alpha kinase GCN2 (Homo sapiens), Q9P2K8 [S808G]; details: Compound concentration 1000.0 nM
[11] = biological target: Dual specificity mitogen-activated protein kinase kinase 6 (Homo sapiens) (UniProt P52564); details: Compound concentration 1000.0 nM
[12] = biological target: Serine/threonine-protein kinase ULK2 (Homo sapiens) (UniProt Q8IYT8); details: Compound concentration 1000.0 nM
[13] = biological target: Aurora kinase C (Homo sapiens) (UniProt Q9UQB9); details: Compound concentration 1000.0 nM
[14] = system: Epidermal growth factor receptor (Homo sapiens), P00533 [UNDEFINED MUTATION]; details: Compound concentration 1000.0 nM; remark: listed apart in the source
[15] = biological target: Tyrosine-protein kinase JAK2 (Homo sapiens) (UniProt O60674); details: Compound concentration 1000.0 nM
[16] = biological target: Receptor tyrosine-protein kinase erbB-4 (Homo sapiens) (UniProt Q15303); details: Compound concentration 1000.0 nM
[17] = biological target: SRSF protein kinase 3 (Homo sapiens) (UniProt Q9UPE1); details: Compound concentration 1000.0 nM
[18] = biological target: Mitogen-activated protein kinase kinase kinase 1 (Homo sapiens) (UniProt Q13233); details: Compound concentration 1000.0 nM
[19] = biological target: Tyrosine-protein kinase ABL2 (Homo sapiens) (UniProt P42684); details: Compound concentration 1000.0 nM
[20] = biological target: Cyclin-dependent kinase 16 (Homo sapiens) (UniProt Q00536); details: Compound concentration 1000.0 nM
[21] = biological target: Death-associated protein kinase 3 (Homo sapiens) (UniProt O43293); details: Compound concentration 1000.0 nM
[22] = biological target: Serine/threonine-protein kinase D2 (Homo sapiens) (UniProt Q9BZL6); details: Compound concentration 1000.0 nM
[23] = biological target: Protein kinase C iota type (Homo sapiens) (UniProt P41743); details: Compound concentration 1000.0 nM
[24] = biological target: Interleukin-1 receptor-associated kinase 3 (Homo sapiens) (UniProt Q9Y616); details: Compound concentration 1000.0 nM
[25] = biological target: Activated CDC42 kinase 1 (Homo sapiens) (UniProt Q07912); details: Compound concentration 1000.0 nM
[26] = biological target: Citron Rho-interacting kinase (Homo sapiens) (UniProt O14578); details: Compound concentration 1000.0 nM
[27] = biological target: Myosin-IIIa (Homo sapiens) (UniProt Q8NEV4); details: Compound concentration 1000.0 nM
[28] = biological target: Hepatocyte growth factor receptor (Homo sapiens) (UniProt P08581); details: Compound concentration 1000.0 nM
[29] = biological target: Phosphatidylinositol 4,5-bisphosphate 3-kinase catalytic subunit beta isoform (Homo sapiens) (UniProt P42338); details: Compound concentration 1000.0 nM
[30] = biological target: Receptor tyrosine-protein kinase erbB-3 (Homo sapiens) (UniProt P21860); details: Compound concentration 1000.0 nM
[31] = biological target: Alpha-1A adrenergic receptor (Homo sapiens) (UniProt P35348); details: Compound concentration 10.0 uM
[32] = biological target: Serine/threonine-protein kinase 26 (Homo sapiens) (UniProt Q9P289); details: Compound concentration 1000.0 nM
[33] = biological target: Alpha-1B adrenergic receptor (Homo sapiens) (UniProt P35368); details: Compound concentration 10.0 uM
[34] = biological target: Cyclin-G-associated kinase (Homo sapiens) (UniProt O14976); details: Compound concentration 1000.0 nM
[35] = biological target: G protein-coupled receptor kinase 3 (Homo sapiens) (UniProt P35626); details: Compound concentration 1000.0 nM
[36] = biological target: Dual specificity protein kinase CLK1 (Homo sapiens) (UniProt P49759); details: Compound concentration 1000.0 nM
[37] = biological target: Cyclin-dependent kinase 18 (Homo sapiens) (UniProt Q07002); details: Compound concentration 1000.0 nM
[38] = biological target: Protein kinase C theta type (Homo sapiens) (UniProt Q04759); details: Compound concentration 1000.0 nM
[39] = biological target: 5-hydroxytryptamine receptor 1D (Homo sapiens) (UniProt P28221); details: Compound concentration 10.0 uM
[40] = biological target: Serine/threonine-protein kinase ICK (Homo sapiens) (UniProt Q9UPZ9); details: Compound concentration 1000.0 nM
[41] = biological target: Phosphatidylinositol 4,5-bisphosphate 3-kinase catalytic subunit delta isoform (Homo sapiens) (UniProt O00329); details: Compound concentration 1000.0 nM
[42] = biological target: Tyrosine-protein kinase Fer (Homo sapiens) (UniProt P16591); details: Compound concentration 1000.0 nM
[43] = biological target: Serine/threonine-protein kinase Nek3 (Homo sapiens) (UniProt P51956); details: Compound concentration 1000.0 nM
[44] = biological target: Interleukin-1 receptor-associated kinase 4 (Homo sapiens) (UniProt Q9NWZ3); details: Compound concentration 1000.0 nM
[45] = biological target: Ribosomal protein S6 kinase alpha-6 (Homo sapiens) (UniProt Q9UK32); details: Compound concentration 1000.0 nM

Epidermal growth factor receptor (Homo sapiens), P00533 [UNDEFINED MUTATION], sequence (P00533 whole entry, looked up, change not shown): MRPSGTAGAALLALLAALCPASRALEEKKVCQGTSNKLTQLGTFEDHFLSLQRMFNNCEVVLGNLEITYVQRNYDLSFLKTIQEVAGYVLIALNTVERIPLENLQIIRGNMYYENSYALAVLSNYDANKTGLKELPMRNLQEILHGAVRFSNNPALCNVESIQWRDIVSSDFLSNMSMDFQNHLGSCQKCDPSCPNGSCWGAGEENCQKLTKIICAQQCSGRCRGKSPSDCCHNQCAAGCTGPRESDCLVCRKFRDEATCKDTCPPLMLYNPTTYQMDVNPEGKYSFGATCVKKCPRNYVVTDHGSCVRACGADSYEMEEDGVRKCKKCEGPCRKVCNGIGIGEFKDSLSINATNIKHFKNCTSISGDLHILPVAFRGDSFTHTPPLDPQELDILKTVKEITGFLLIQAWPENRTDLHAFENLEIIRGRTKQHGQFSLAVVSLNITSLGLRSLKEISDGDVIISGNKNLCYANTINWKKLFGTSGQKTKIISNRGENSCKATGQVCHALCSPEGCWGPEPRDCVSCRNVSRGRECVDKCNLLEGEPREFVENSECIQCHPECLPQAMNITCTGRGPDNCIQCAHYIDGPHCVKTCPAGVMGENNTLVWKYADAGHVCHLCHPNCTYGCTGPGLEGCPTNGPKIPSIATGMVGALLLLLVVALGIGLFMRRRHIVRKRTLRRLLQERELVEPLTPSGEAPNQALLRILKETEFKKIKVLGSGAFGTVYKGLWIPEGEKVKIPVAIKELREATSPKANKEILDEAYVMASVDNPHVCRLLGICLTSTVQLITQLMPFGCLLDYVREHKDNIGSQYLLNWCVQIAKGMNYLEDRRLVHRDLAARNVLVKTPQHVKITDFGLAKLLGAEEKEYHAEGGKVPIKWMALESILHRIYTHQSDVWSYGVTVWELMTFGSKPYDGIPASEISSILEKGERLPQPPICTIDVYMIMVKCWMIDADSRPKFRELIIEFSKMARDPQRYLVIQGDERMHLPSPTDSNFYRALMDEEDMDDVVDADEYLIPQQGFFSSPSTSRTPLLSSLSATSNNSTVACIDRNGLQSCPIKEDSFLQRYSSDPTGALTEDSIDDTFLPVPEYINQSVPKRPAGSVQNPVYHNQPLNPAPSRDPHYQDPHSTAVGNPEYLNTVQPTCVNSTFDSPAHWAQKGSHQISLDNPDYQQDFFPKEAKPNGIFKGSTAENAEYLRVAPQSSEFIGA
Protein kinase C theta type (Homo sapiens), sequence (Q04759 whole entry, looked up): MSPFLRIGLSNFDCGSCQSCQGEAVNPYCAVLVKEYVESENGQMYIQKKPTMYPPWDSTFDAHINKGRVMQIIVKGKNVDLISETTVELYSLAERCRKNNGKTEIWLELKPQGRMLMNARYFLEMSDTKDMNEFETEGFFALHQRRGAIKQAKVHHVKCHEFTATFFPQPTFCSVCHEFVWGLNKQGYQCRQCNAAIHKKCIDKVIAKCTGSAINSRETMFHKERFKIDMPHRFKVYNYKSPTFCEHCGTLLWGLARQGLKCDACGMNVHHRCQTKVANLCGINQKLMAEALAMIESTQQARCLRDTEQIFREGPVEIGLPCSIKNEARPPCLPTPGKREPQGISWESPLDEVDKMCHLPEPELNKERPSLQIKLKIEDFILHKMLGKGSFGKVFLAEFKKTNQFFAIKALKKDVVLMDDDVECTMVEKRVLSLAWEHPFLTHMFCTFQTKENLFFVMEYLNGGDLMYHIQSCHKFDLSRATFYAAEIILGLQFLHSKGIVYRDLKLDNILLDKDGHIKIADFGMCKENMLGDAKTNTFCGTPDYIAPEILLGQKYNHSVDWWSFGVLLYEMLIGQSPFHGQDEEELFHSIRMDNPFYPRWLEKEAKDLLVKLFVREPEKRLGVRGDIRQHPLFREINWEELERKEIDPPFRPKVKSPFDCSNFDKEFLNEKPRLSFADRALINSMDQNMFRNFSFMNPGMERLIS
Mitogen-activated protein kinase kinase kinase 1 (Homo sapiens), sequence (Q13233 whole entry): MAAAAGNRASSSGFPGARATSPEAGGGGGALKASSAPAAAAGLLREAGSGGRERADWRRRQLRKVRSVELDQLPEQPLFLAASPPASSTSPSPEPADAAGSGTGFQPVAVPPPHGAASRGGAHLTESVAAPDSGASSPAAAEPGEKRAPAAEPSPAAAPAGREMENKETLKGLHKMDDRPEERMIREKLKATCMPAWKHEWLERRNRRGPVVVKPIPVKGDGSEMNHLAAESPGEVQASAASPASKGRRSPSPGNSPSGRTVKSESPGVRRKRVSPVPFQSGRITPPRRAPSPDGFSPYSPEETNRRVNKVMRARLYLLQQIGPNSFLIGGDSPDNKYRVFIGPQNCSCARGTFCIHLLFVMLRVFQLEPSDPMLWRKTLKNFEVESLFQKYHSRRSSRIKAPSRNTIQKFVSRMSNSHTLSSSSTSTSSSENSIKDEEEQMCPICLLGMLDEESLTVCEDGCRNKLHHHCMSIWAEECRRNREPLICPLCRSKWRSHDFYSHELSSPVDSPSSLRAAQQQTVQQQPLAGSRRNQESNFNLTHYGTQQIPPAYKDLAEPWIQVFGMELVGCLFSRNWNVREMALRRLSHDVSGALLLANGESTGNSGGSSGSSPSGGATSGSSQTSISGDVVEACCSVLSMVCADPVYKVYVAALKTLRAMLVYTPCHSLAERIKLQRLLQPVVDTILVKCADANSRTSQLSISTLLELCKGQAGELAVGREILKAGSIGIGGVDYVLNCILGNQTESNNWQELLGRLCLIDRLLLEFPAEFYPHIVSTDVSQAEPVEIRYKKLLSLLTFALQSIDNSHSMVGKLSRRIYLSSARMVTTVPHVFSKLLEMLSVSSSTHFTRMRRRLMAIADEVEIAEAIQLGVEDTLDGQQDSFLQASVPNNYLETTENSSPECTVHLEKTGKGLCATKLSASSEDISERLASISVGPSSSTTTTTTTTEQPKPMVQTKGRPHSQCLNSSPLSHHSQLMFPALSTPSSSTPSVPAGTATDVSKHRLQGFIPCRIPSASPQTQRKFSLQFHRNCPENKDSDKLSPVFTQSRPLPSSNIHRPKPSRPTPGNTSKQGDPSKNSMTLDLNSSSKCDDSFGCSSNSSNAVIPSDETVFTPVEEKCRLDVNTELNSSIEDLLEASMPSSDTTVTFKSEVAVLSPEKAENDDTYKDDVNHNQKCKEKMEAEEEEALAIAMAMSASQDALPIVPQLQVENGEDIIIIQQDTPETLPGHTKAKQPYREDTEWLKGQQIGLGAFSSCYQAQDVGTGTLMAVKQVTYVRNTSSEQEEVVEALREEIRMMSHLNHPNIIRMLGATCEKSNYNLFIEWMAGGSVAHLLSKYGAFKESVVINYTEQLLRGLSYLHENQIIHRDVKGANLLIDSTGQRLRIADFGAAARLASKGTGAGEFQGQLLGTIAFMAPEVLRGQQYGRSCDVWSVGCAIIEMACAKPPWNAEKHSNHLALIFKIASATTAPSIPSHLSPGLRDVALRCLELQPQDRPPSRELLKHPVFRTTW
Alpha-1B adrenergic receptor (Homo sapiens), sequence (P35368 whole entry): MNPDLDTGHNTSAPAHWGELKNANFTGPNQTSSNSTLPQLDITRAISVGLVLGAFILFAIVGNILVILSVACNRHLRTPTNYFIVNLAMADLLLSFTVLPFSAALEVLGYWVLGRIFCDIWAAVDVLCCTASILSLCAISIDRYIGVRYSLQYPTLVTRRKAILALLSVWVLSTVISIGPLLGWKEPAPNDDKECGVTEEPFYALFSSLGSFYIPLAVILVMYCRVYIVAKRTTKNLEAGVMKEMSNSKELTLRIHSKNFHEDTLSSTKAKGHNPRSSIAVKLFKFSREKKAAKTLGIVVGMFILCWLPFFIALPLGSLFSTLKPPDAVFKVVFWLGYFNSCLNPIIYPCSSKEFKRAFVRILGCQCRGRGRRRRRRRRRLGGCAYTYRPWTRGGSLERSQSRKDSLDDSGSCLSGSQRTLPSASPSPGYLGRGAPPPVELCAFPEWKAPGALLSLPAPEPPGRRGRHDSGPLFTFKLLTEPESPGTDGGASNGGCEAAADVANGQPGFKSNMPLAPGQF
Activated CDC42 kinase 1 (Homo sapiens), sequence (Q07912 whole entry, looked up): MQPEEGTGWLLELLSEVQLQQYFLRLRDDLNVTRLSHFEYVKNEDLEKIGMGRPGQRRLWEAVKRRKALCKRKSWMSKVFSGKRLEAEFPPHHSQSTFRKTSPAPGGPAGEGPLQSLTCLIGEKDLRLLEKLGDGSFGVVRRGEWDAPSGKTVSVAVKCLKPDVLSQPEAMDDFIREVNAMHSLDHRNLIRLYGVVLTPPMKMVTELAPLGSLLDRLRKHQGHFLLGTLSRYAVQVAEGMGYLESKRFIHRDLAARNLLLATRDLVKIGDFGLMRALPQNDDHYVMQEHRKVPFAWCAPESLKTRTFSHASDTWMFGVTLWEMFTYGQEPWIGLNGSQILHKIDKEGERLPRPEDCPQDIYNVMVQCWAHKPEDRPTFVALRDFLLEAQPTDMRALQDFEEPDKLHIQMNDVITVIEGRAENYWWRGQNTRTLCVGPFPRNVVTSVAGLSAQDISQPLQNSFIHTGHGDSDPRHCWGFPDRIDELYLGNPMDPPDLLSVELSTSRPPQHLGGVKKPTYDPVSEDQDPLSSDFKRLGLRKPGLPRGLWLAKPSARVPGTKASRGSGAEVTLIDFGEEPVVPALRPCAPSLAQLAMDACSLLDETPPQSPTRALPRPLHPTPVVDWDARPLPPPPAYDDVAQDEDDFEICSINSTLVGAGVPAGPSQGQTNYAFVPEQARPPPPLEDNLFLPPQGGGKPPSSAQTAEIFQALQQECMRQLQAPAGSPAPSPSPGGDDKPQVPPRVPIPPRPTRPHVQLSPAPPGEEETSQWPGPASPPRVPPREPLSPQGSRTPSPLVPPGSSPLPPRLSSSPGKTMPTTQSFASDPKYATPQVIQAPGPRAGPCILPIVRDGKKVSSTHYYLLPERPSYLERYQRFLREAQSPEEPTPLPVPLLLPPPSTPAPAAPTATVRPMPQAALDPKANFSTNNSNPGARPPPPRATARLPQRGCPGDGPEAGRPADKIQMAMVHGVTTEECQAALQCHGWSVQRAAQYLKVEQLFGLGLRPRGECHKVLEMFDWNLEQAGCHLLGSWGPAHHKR

Cc1c(NC(=O)c2cc(C(N)=O)nc3cc(F)ccc23)c(C(F)(F)F)nn1Cc1ccc(C(C)(C)C)cc1 [BAY-588]
inactive: residual activity [1] 75% | residual activity [2] 96% | residual activity [3] 100% | residual activity [4] 100% | residual activity [5] 100% | residual activity [6] 82% | residual activity [7] 100% | inhibition [8] 7.98% | residual activity [9] 88% | residual activity [10] 56% | residual activity [11] 92% | residual activity [12] 100% | residual activity [13] 100% | residual activity [14] 96% | residual activity [15] 100% | residual activity [16] 98% | residual activity [17] 100% | residual activity [18] 100% | residual activity [19] 87% | residual activity [20] 100% | residual activity [21] 76% | residual activity [22] 100% | residual activity [23] 98% | residual activity [24] 100% | residual activity [25] 100% | residual activity [26] 100% | residual activity [27] 100% | residual activity [28] 100% | residual activity [29] 100% | residual activity [30] 94% | inhibition [31] 5.25% | residual activity [32] 100% | inhibition [33] -5.98% | residual activity [34] 98% | residual activity [35] 100% | residual activity [36] 62% | residual activity [37] 88% | residual activity [38] 91% | inhibition [39] -4.9% | residual activity [40] 61% | residual activity [41] 100% | residual activity [42] 100% | residual activity [43] 100% | residual activity [44] 100% | residual activity [45] 100%

Cc1c(NC(=O)c2cc(C(N)=O)nc3cc(F)ccc23)c(C(F)(F)F)nn1Cc1ccc(C#N)cc1 [BAY-876]
inactive: residual activity [1] 79% | residual activity [2] 93% | residual activity [3] 100% | residual activity [4] 94% | residual activity [5] 100% | residual activity [6] 100% | residual activity [7] 100% | inhibition [8] 4% | residual activity [9] 91% | residual activity [10] 100% | residual activity [11] 100% | residual activity [12] 81% | residual activity [13] 90% | residual activity [14] 61% | residual activity [15] 75% | residual activity [16] 95% | residual activity [17] 100% | residual activity [18] 65% | residual activity [19] 74% | residual activity [20] 100% | residual activity [21] 89% | residual activity [22] 100% | residual activity [23] 84% | residual activity [24] 94% | residual activity [25] 71% | residual activity [26] 81% | residual activity [27] 91% | residual activity [28] 100% | residual activity [29] 83% | residual activity [30] 92% | inhibition [31] -5.75% | residual activity [32] 95% | inhibition [33] -8.82% | residual activity [34] 95% | residual activity [35] 89% | residual activity [36] 86% | residual activity [37] 100% | residual activity [38] 80% | inhibition [39] 6.11% | residual activity [40] 100% | residual activity [41] 66% | residual activity [42] 99% | residual activity [43] 74% | residual activity [44] 84% | residual activity [45] 78%
